# Measurements taken from patent US7741047B2, “Method for treating autoimmune diseases and screening method for preventive or therapeutic agent for the same” (Kowa Co., Ltd., priority 2003, dated 2010).
# Legend:
# [1] = test system: RHO cells (RBAp48-stable cell line from HSG cells); test: Apoptosis of RBAp48-stable cell line after addition of IPTG; format: cell-based, human; settings: from two hours to twelve hours after addition of IPTG
# Text: (§1) A stable cell line in which RBAp48 expression is stably regulated by addition of IPTG to the culture system is established by means of LacSwitch II Inducible Mammalian Expression System (STRATEGENE) through use of HSG cells (RHO cell). […] Separately, the RHO cells were investigated in terms of cell cycle related molecules (i.e., RBs, phosphorylated RB, CyclinD3, and p19ARF) in the cell lysates six hours after addition of IPTG, through western blotting by use of the corresponding antibodies (BD Transduction Laboratory). […] In addition, a nuclear extract of IPTG-added RHO cells was subjected to gel shift assay.
# [2] = test system: MSG:B6, ERαKO, HSG, MCF-7, Jurkat, HT-29 and Colo201 cells; test: Apoptosis induction of cultured cells, positive control groups; format: cell-based; settings: staurosporin 10^−6 M, all cell groups, not differing from one group to another
# Description: (§2) Cells of each of the following cell lines were cultured through a routine method; mouse salivary gland cell lines (MSG:B6 and ERαKO); human salivary gland cell line (HSG); human breast cancer cultured-cell line (MCF-7); human acute T cell leukemia cell line (Jurkat); and human colon cancer cultured-cell lines (HT-29 and Colo201). The cultured cells were reacted with tamoxifen (Tam, final concentration: 10^−7 M), an antagonist of estrogen. […] Separately, the above cultured cells were reacted with staurosporin (an apoptosis inducer, final concentration: 10^−6 M), and the resultant cells were used as a positive control group. Forty-eight hours after the addition of Tam, apoptosis of the cells was determined by means of a flow cytometer, by use of Annexin-V-FITC.
# [3] = test system: human breast cancer cultured-cell line (MCF-7); settings: MCF-7 cells, previously known; cited from earlier work
# [4] = test system: human salivary gland cell line (HSG); test: Apoptosis induction of cultured cells, Annexin-V-FITC flow cytometry; format: cell-based; settings: Tam 10^−7 M, 48 hours after addition, compared with groups without Tam
# Description: as §2
# [5] = test system: mouse salivary gland cell line MSG (B6); test: as above; format: cell-based; settings: Tam 10^−7 M, 48 hours after addition, compared with groups without Tam
# Description: as §2
# [6] = test system: ERαKO-mouse-derived MSG cells; test: as above; format: cell-based; settings: Tam 10^−7 M, 48 hours
# Description: as §2
# [7] = test system: RBAp48 mRNA in HSG cells; test: Northern blotting of genes with enhanced expression by anti-estrogen effect; format: cell-based, human
# [8] = test system: RHO cells (RBAp48-stable cell line from HSG cells); test: Effect of siRNA on RBAp48-induced apoptosis, Annexin-V-FITC flow cytometry; format: cell-based, human; settings: 50 nM siRNA by lipofection, IPTG 24 h after transfer, culture 8 h
# Text: as §1
# siRNA of RBAp48 was prepared (sense; CGAGGAAUACAAAAUAUGGTT (SEQ ID NO: 1), antisense; CCAUAUUCUGUAUUCCUCGTT (SEQ ID NO: 2)). […] The percent apoptotic cells of the cultured cells was determined by means of a flow cytometer, by use of Annexin-V-FITC.
molecule,measurement,setting,value
"CC(C)S[C@@H]1O[C@H](CO)[C@H](O)[C@H](O)[C@H]1O [IPTG, isopropyl-β-D-thiogalactoside]",percent apoptotic cells,[1],increase over time
CN[C@@H]1C[C@H]2O[C@@](C)([C@@H]1OC)n1c3ccccc3c3c4c(c5c6ccccc6n2c5c31)C(=O)NC4 [staurosporin],percent apoptotic cells,[2],high
CC/C(=C(\c1ccccc1)c1ccc(OCCN(C)C)cc1)c1ccccc1 [tamoxifen],apoptosis induction,[3],known to be induced
same,percent apoptotic cells,[4],significantly high
same,percent apoptotic cells,[5],significantly high
same,apoptosis induction,[6],not to be induced
same,mRNA (RBAp48 gene) expression,"[7]; tamoxifen 10^−7 M, northern blotting",enhanced expression
same,RBAp48 mRNA expression,[7]; two hours after Tam stimulation,strong RBAp48 mRNA expression
"RBAp48 siRNA: siRNA of RBAp48: sense CGAGGAAUACAAAAUAUGGTT (SEQ ID NO: 1), antisense CCAUAUUCUGUAUUCCUCGTT (SEQ ID NO: 2)",apoptosis induced by addition of IPTG,[8],significantly suppressed
